{"source": "patent US20230293629A1", "about": "“METHODS FOR ATTENUATING RELEASE OF INFLAMMATORY MEDIATORS AND PEPTIDES USEFUL THEREIN” (BIOMARCK PHARMACEUTICALS LTD., priority 2006, published 2023)", "tested_on": "MARCKS phosphorylation in NHBE cells", "assay": "MARCKS phosphorylation in NHBE cells, radiolabeled immunoprecipitation assay", "assay_type": "cell-based, human", "conditions": "100 nM PMA, NHBE cells", "experimental": "Radiolabeled Immunoprecipitation Assay—When labeling with [^32P]phosphate, cells were preincubated for 2 h in phosphate-free Dulbecco's modified Eagle's medium containing 0.2% bovine serum albumin and then labeled with 0.1 mCi/ml [^32P]orthophosphate (9000 Ci/mmol, PerkinElmer Life Sciences) for 2 h. For labeling with [^3H]myristic acid or 3H-amino acids, cells were incubated overnight in medium containing 50 μCi/ml [^3H]myristic acid (49 Ci/mmol, PerkinElmer Life Sciences) or 0.2 mCi/ml [^3H]leucine (159 Ci/mmol, PerkinElmer Life Sciences) plus 0.4 mCi/ml [^3H]proline (100 Ci/mmol, PerkinElmer Life Sciences). Following labeling, cells were exposed to stimulatory reagents for 5 min. When an inhibitor was used, cells were preincubated with the inhibitor for 15 min prior to stimulation. At the end of the treatments, cells were lysed in a buffer containing 50 mM Tris-HCl (pH 7.5), 150 mM NaCl, 1 mM EDTA, 10% glycerol, 1% Nonidet P-40, 1 mM phenylmethylsulfonyl fluoride, 1 mM benzamidine, 10 μg/ml pepstatin A, and 10 μg/ml leupeptin. Trichloroacetic acid precipitation and scintillation counting may determine the radiolabeling efficiency in each culture. Immunoprecipitation of MARCKS protein was carried out according to the method of Spizz and Blackshear using cell lysates containing equal counts/min. Spizz et al., J. Biol. Chem. 271, 553-562 (1996). Precipitated proteins were resolved by 8% SDS-polyacrylamide gel electrophoresis and visualized by autoradiography. Anti-human MARCKS antibody (2F12) and nonimmune control antibody (6F6) were used in this assay.\nTo assess MARCKS or MARCKS-associated protein complexes in different subcellular fractions, radiolabeled and treated cells were scraped into a homogenization buffer (50 mM Tris-HCl (pH 7.5), 10 mM NaCl, 1 mM EDTA, 1 mM phenylmethylsulfonyl fluoride, 1 mM benzamidine, 10 μg/ml pepstatin A, 10 μg/ml leupeptin) and then disrupted by nitrogen cavitation (800 pounds/square inch for 20 min at 4° C.). Cell lysates were centrifuged at 600×g for 10 min at 4° C. to remove nuclei and unbroken cells. Post-nuclear supernatants were separated into membrane and cytosol fractions by ultracentrifugation at 400,000×g for 30 min at 4° C. The membrane pellet was solubilized in the lysis buffer by sonication. Immunoprecipitation was then carried out as described above."}
{"smiles": "CCCCCCCCCCCCCC(=O)O[C@@H]1[C@@H](C)[C@@]2(O)[C@@H](C=C(CO)C[C@]3(O)C(=O)C(C)=C[C@@H]23)[C@@H]2C(C)(C)[C@]12OC(C)=O", "note": "[PMA, phorbol 12-myristate 13-acetate]", "values": [{"measurement": "increase in MARCKS phosphorylation", "result": "3-4 fold"}]}
